# Measured values published in ChEMBL document CHEMBL6114943, “Engineered Cyclotide Blocks Neuronal Excitotoxicity” (J Med Chem, 2025).
# *1 amine or outer side, *2 acyl side, *3 side chain or, on linkers, in order; H or OH if unused. Where a SMILES comes first, the peptide text is derived from it. Bridges are numbered along the chain shown (N, C = ends). The star is where a group is joined. X2 = CC(C)C[C@H](C(=O)[C@H](CCCCNC(=O)c1ccc(-c2c3ccc(=[N+](C)C)cc-3oc3cc(N(C)C)ccc23)c(C(=O)[O-])c1)N[*:2])C(=O)[*:1]; X1 = CC[N+]1=C(/C=C/C=C/C=C/C=C2/N(CCCCCC(=O)*)c3ccc(S(=O)(=O)O)cc3C2(C)C)C(C)(C)c2cc(S(=O)(=O)[O-])ccc21
# Key:
# [1] = Stability in C57BL/6 mouse plasma assessed as drug degradation by measuring parent compound remaining at 100 uM measured after 5 hrs in presence of alteplase by HPLC analysis; type: ADME, cell-free; settings: read-out: Stability
# [2] = Stability in C57BL/6 mouse plasma assessed as drug degradation at 100 uM measured after 5 hrs in presence of alteplase by HPLC analysis; type: ADME, cell-free
# [3] = Drug uptake in mouse Primary neuron at 500 nM incubated for 60 mins by inverted confocal microscopic analysis relative to control; type: ADME, cell-based; settings: 1 h, 0.5 µM
# [4] = Drug uptake in mouse Primary neuron at 100 nM incubated for 60 mins by inverted confocal microscopic analysis relative to control; type: ADME, cell-based; settings: 1 h, 0.1 µM
# [5] = Stability in C57BL/6 mouse plasma assessed as drug degradation by measuring parent compound remaining at 100 uM measured after 5 hrs by HPLC analysis; type: ADME, cell-free; settings: read-out: Stability
# [6] = Stability in C57BL/6 mouse plasma assessed as parent compound remaining at 100 uM measured after 24 hrs in presence of alteplase by HPLC analysis; type: ADME, cell-free; settings: read-out: Stability
# [7] = Stability in C57BL/6 mouse plasma assessed as parent compound remaining at 100 uM measured after 24 hrs by HPLC analysis; type: ADME, cell-free; settings: read-out: Stability
# [8] = Biodistribution in C57BL/6 mouse liver at 3 nmol/g, iv measured after 90 mins post injection by fluorescence based analysis; type: ADME, organism-based; settings: in vivo, 1.5 h
# [9] = Biodistribution in C57BL/6 mouse spleen at 3 nmol/g, iv measured after 24 hrs post injection by fluorescence based analysis; type: ADME, organism-based; settings: in vivo
# [10] = Biodistribution in C57BL/6 mouse brain at 3 nmol/g, iv measured after 90 mins post injection by fluorescence based analysis; type: ADME, organism-based; settings: in vivo, 1.5 h
# [11] = Biodistribution in C57BL/6 mouse lung at 3 nmol/g, iv measured after 24 hrs post injection by fluorescence based analysis; type: ADME, organism-based; settings: in vivo
# [12] = Biodistribution in C57BL/6 mouse heart at 3 nmol/g, iv measured after 90 mins post injection by fluorescence based analysis; type: ADME, organism-based; settings: in vivo, 1.5 h
# [13] = Biodistribution in C57BL/6 mouse spleen at 3 nmol/g, iv measured after 90 mins post injection by fluorescence based analysis; type: ADME, organism-based; settings: in vivo, 1.5 h
# [14] = Biodistribution in C57BL/6 mouse lung at 3 nmol/g, iv measured after 90 mins post injection by fluorescence based analysis; type: ADME, organism-based; settings: in vivo, 1.5 h
# [15] = Biodistribution in C57BL/6 mouse kidney at 3 nmol/g, iv measured after 90 mins post injection by fluorescence based analysis; type: ADME, organism-based; settings: in vivo, 1.5 h
SMILES,"remaining at 5 h, 100 µM [1] [%]",Stability [2],Drug uptake [3] [%],Drug uptake [4] [%],"remaining at 5 h, 100 µM [5] [%]","remaining at 24 h, 100 µM [6] [%]","remaining at 24 h, 100 µM [7] [%]",Drug uptake [8],Drug uptake [9],Drug uptake [10],Drug uptake [11],Drug uptake [12],Drug uptake [13],Drug uptake [14],Drug uptake [15]
"CC[C@H](C)[C@@H]1NC(=O)[C@@H]2CSSC[C@@H]3NC(=O)[C@H](C(C)C)NC(=O)[C@H](CC(=O)O)NC(=O)[C@H](CO)NC(=O)[C@H](CCC(=O)O)NC(=O)[C@H]([C@@H](C)CC)NC(=O)[C@H](CO)NC(=O)[C@H](CO)NC(=O)[C@H](CC(C)C)C(=O)[C@H](CCCCNC(=O)c4ccc(-c5c6ccc(=[N+](C)C)cc-6oc6cc(N(C)C)ccc56)c(C(=O)[O-])c4)NC(=O)[C@@H]4CSSC[C@H](NC(=O)[C@H](CC(=O)O)NC(=O)[C@H](CO)NC(=O)[C@H](CC(=O)O)NC(=O)[C@H](CCCNC(=N)N)NC(=O)[C@H](CCCNC(=N)N)NC(=O)[C@H](CSSC[C@H](NC1=O)C(=O)N[C@@H](CCCNC(=N)N)C(=O)NCC(=O)N[C@@H](CC(N)=O)C(=O)NCC(=O)N[C@@H](Cc1ccc(O)cc1)C(=O)N4)NC(=O)[C@H](CCCNC(=N)N)NC(=O)[C@H](CCCNC(=N)N)NC(=O)[C@H](CCCNC(=N)N)NC(=O)[C@H](CCCNC(=N)N)NC(=O)[C@H](CC(C)C)NC(=O)[C@H]([C@@H](C)CC)NC(=O)[C@H](CCCNC(=N)N)NC(=O)[C@@H]1CCCN1C3=O)C(=O)N1CCC[C@H]1C(=O)NCC(=O)N[C@@H](C)C(=O)N2 (SSIESDVCPRILRRRRCRRDSDCPGACICRGNGYC; disulfide 8-27, 17-29, 23-35; linker N-C via X2)",93,Unstable,85.7,75.9,93,90,90,–,–,–,–,–,–,–,–
CC[C@H](C)[C@H](NC(=O)[C@H](CO)NC(=O)[C@H](CO)NC(=O)[C@H](CC(C)C)NC(=O)[C@H](CCCCN)NC(=O)[C@H](CCCNC(=N)N)NC(=O)[C@H](CCCNC(=N)N)NC(=O)[C@H](CCCNC(=N)N)NC(=O)[C@H](CCC(N)=O)NC(=O)[C@H](CCCNC(=N)N)NC(=O)[C@H](CCCNC(=N)N)NC(=O)[C@H](CCCCN)NC(=O)[C@H](CCCCN)NC(=O)[C@H](CCCNC(=N)N)NC(=O)CNC(=O)[C@H](Cc1ccc(O)cc1)NC(=O)CCCCCN1/C(=C/C=C/C=C/C=C/C2=[N+](CC)c3ccc(S(=O)(=O)[O-])cc3C2(C)C)C(C)(C)c2cc(S(=O)(=O)O)ccc21)C(=O)N[C@@H](CCC(=O)O)C(=O)N[C@@H](CO)C(=O)N[C@@H](CC(=O)O)C(=O)N[C@H](C(=O)O)C(C)C (X1-YGRKKRRQRRRKLSSIESDV-OH),–,–,–,–,–,–,–,Active,Not_active,Active,Not_active,Active,Active,Active,Active
